Source: ChEMBL document CHEMBL2046359, “Novel tricyclic indeno[2,1-d]pyrimidines with dual antiangiogenic and cytotoxic activities as potent antitumor agents” (Bioorg Med Chem, 2012)
Calls of active or inactive are those of the source. The calls are words filed in the database; no cut-off is given here.

Assays:
[1] = biological target: Platelet-derived growth factor receptor beta (Homo sapiens, UniProt P09619); assay: Inhibition of PDGFRbeta in human SF539 cells pretreated for 60 mins measured after 10 mins by ELISA
[2] = biological target: Epidermal growth factor receptor (Homo sapiens, UniProt P00533); assay type: cell-based, A-431
[3] = Antiangiogenic activity in VEGF/bFGF-stimulated chicken embryo after 48 hrs by CAM assay; assay type: functional, Gallus gallus
A-431 = assay: Antiproliferative activity against human A431 cells after 48 hrs by CYQUANT assay; assay type: functional, cell-based; conditions: A-431, 48 h
[4] = biological target: Vascular endothelial growth factor receptor 2 (Homo sapiens, UniProt P35968); assay type: cell-based, U-251
[5] = biological target: T1, Bifunctional dihydrofolate reductase-thymidylate synthase (Toxoplasma gondii, UniProt Q07422); assay: Inhibition of Toxoplasma gondii DHFR
T1 sequence (Q07422 whole entry): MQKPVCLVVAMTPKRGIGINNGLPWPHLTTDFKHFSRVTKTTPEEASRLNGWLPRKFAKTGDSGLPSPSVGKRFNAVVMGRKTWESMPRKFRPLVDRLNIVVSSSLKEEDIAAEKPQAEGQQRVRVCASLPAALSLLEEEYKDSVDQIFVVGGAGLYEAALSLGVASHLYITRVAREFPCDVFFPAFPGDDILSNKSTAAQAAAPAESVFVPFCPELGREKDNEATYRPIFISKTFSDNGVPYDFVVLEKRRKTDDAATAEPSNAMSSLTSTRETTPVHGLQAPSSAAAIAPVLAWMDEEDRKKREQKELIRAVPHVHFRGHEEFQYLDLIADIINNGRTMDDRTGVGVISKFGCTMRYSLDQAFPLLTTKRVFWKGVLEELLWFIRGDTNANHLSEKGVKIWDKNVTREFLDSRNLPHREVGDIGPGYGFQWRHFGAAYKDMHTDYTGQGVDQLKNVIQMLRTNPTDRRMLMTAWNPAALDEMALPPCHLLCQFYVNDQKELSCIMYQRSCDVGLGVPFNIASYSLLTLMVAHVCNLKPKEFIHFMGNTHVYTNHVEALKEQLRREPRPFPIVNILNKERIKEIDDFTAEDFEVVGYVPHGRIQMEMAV

[6] = biological target: T1, Bifunctional dihydrofolate reductase-thymidylate synthase; assay: Inhibition of Toxoplasma gondii thymidylate synthase
[7] = biological target: Dihydroorotate dehydrogenase (quinone), mitochondrial (Homo sapiens, UniProt Q02127); assay: Inhibition of human DHODH
[8] = Inhibition of Escherichia coli thymidylate synthase
[9] = biological target: T2, Dihydroorotate dehydrogenase (Plasmodium falciparum, UniProt Q54A96); assay: Inhibition of Plasmodium falciparum DHODH
T2 sequence (Q54A96 whole entry): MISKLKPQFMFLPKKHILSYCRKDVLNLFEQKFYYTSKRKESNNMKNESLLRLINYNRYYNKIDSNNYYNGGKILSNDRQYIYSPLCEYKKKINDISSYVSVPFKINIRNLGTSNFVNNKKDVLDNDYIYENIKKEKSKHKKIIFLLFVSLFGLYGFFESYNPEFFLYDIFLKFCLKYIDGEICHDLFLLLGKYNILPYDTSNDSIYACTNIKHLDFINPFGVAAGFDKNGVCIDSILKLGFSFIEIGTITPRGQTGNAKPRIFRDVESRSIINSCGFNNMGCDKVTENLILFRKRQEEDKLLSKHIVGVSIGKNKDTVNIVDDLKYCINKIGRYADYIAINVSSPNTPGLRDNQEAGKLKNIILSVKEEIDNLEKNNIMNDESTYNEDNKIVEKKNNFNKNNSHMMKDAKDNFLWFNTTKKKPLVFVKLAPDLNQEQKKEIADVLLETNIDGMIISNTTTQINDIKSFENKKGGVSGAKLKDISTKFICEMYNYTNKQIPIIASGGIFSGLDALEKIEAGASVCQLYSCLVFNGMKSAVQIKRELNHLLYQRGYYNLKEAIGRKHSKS

Thymidylate synthase = Thymidylate synthase (Homo sapiens, UniProt P04818); assay: Inhibition of human thymidylate synthase
Dihydrofolate reductase = biological target: T3, Dihydrofolate reductase (Homo sapiens, UniProt P00374)
T3 sequence (P00374 whole entry): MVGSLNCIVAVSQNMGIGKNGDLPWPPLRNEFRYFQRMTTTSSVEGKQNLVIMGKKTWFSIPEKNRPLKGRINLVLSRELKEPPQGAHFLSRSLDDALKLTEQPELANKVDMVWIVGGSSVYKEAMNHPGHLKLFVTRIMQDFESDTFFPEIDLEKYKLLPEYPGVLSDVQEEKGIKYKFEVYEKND

B16-F10 [10] = assay: Antitumor activity against mouse B16F10 cells allografted in NCr nu/nu mouse assessed as tumor growth reduction at 35 mg/kg, ip administered three times weekly for 2 weeks
B16-F10 [11] = assay: Antitumor activity against mouse B16F10 cells allografted in NCr nu/nu mouse assessed as inhibition of tumor angiogenesis at 35 mg/kg, ip administered three times weekly for 2 weeks
B16-F10 [12] = assay: Antitumor activity against mouse B16F10 cells allografted in NCr nu/nu mouse assessed as decrease in tumor metastasis at 35 mg/kg, ip administered three times weekly for 2 weeks

Chain of Thymidylate synthase (P04818 whole entry): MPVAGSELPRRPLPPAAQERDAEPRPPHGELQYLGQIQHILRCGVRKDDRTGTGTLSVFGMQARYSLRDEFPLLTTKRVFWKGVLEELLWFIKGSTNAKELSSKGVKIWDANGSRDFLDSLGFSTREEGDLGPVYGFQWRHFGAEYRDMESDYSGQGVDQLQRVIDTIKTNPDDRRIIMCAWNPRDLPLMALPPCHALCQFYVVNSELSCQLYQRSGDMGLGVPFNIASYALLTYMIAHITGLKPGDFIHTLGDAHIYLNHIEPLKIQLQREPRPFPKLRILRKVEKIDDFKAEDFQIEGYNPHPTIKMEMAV
Chain of Vascular endothelial growth factor receptor 2 (P35968 whole entry): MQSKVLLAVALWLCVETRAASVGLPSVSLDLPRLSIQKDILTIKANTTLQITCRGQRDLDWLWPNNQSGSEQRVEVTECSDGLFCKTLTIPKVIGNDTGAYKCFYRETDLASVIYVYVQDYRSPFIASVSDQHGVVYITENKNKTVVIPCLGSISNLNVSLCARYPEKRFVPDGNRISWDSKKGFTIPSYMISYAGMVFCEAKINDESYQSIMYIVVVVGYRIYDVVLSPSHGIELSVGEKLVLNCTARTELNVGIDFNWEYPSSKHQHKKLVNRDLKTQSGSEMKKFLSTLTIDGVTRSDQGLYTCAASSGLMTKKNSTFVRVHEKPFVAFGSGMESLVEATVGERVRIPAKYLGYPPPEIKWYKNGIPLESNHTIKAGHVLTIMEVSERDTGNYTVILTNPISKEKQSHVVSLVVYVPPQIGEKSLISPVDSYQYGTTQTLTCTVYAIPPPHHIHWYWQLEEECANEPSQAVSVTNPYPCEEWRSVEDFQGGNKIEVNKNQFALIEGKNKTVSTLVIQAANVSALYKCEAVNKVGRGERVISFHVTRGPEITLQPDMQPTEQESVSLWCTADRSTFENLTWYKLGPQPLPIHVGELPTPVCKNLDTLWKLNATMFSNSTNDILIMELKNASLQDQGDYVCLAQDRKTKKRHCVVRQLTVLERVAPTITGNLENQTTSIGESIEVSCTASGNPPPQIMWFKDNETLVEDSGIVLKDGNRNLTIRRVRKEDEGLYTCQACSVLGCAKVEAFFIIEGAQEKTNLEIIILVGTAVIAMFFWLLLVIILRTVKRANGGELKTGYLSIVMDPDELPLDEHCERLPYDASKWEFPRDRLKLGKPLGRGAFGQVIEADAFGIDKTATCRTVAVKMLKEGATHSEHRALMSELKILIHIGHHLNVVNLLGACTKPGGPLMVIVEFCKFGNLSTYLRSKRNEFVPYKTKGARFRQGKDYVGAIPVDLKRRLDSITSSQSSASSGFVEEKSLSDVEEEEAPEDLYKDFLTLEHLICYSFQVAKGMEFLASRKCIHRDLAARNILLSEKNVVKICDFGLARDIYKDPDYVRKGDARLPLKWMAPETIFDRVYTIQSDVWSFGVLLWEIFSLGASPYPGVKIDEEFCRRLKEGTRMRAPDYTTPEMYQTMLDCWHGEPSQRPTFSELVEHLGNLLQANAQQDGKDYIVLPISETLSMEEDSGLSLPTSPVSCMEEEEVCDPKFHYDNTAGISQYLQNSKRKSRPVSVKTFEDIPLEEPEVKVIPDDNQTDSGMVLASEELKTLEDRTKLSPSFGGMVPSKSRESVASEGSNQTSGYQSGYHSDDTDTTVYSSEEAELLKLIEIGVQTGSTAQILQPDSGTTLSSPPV
Chain of Epidermal growth factor receptor (P00533 whole entry): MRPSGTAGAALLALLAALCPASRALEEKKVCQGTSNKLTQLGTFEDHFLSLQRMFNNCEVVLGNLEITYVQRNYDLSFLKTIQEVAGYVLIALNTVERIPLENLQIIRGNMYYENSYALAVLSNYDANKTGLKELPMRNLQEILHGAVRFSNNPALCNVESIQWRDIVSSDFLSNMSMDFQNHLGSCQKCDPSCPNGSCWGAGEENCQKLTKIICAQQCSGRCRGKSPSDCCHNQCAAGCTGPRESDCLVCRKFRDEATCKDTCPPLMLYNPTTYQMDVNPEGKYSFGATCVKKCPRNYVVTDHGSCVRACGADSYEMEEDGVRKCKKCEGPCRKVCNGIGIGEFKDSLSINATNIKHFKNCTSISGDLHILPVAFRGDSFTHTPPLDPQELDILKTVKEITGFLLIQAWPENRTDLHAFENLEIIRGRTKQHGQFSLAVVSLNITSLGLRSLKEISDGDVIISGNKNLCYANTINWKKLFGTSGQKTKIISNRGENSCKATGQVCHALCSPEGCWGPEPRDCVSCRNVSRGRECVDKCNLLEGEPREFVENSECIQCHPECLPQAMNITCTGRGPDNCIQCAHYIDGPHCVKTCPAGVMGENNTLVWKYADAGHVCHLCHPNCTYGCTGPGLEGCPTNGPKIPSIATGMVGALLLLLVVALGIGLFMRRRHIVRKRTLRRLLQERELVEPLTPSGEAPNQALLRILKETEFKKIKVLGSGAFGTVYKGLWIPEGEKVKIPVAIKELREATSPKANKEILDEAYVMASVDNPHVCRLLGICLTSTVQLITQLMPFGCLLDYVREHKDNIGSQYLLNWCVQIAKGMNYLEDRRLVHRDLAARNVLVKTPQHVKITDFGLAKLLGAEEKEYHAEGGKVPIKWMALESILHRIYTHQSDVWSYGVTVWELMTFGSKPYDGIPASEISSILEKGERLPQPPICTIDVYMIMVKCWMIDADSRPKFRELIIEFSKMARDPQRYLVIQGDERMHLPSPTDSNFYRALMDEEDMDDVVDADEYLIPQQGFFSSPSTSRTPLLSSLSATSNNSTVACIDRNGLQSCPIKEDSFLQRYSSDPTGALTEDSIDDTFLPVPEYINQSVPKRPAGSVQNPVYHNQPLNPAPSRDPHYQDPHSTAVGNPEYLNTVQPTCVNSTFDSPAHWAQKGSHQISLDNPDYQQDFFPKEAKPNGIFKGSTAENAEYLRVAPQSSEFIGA
Chain of Platelet-derived growth factor receptor beta (P09619 whole entry): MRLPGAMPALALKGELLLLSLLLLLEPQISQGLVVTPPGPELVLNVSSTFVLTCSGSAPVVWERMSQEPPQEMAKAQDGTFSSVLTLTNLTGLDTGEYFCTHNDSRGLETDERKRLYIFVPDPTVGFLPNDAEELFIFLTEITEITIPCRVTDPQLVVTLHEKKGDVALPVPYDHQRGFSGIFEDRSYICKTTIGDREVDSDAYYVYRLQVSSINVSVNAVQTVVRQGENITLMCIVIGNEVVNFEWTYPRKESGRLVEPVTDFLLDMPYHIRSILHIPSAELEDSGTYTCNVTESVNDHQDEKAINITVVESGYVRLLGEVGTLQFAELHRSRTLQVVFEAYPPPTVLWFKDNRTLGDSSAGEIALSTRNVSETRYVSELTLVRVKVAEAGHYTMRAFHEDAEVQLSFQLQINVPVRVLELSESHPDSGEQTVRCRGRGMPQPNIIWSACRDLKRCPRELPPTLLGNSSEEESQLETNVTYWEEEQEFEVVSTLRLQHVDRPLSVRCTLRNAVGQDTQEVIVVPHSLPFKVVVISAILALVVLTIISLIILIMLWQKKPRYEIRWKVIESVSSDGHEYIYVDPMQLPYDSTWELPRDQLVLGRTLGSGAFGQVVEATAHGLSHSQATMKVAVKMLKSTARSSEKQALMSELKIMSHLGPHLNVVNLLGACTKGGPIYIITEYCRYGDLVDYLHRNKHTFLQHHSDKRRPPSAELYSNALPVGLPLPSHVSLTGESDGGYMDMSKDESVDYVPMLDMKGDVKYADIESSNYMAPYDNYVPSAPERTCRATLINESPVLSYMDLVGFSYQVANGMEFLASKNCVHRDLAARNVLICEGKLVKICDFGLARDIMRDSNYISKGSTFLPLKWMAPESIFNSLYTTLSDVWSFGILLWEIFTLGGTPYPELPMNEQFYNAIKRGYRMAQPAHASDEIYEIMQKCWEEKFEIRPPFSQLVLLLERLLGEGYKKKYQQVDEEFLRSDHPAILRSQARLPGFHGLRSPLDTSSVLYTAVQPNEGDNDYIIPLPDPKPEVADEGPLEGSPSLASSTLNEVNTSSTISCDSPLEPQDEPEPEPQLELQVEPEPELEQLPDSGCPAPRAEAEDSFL
Chain of Dihydroorotate dehydrogenase (quinone), mitochondrial (Q02127 whole entry): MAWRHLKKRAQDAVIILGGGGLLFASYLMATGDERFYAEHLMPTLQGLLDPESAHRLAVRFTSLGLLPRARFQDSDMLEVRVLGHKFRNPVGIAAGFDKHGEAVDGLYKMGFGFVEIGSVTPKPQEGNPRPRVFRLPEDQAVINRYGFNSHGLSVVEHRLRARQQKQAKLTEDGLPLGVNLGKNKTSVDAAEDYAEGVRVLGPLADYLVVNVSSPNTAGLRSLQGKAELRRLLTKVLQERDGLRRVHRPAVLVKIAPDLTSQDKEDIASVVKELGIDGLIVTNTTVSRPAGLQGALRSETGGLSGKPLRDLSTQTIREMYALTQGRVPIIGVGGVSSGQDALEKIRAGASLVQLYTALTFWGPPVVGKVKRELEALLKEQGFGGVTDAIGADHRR

Row | Compound | IC50 [1] | IC50 [2] | IC50 [3] | IC50 (A-431) | IC50 [4] | IC50 [5] | IC50 [6] | IC50 [7] | IC50 [8] | IC50 [9] | IC50 (Thymidylate synthase) | IC50 (Dihydrofolate reductase) | growth inhibition (GI) (B16-F10 [10]) | Activity (B16-F10 [11]) | Activity (B16-F10 [12])
1 | Nc1nc2c(c(Nc3ccc(C(F)(F)F)cc3)n1)-c1ccccc1C2 | 23.1 µM | > 300 µM | 8.1 µM | 306 µM | > 200 µM |  |  |  |  |  |  |  |  |  | 
2 | Nc1nc2c(c(Nc3cccc(Cl)c3)n1)-c1ccccc1C2 | > 500 µM |  |  | 235 µM |  |  |  |  |  |  |  |  |  |  | 
3 | Nc1nc2c(c(Nc3ccc(Cl)cc3F)n1)-c1ccccc1C2 |  |  |  | 9.7 µM |  | > 16 µM | > 13 µM | > 200 µM | > 13 µM | > 200 µM | > 13 µM | > 16 µM |  |  | 
4 | Cc1[nH]c(/C=C2\C(=O)Nc3ccccc32)c(C)c1CCC(=O)O |  |  |  |  |  |  |  |  |  |  |  |  | Active | Active | Active
5 | CC(C)c1ccc(Nc2nc(N)nc3c2-c2ccccc2C3)cc1 |  |  |  | 126 µM |  | > 16 µM | > 14 µM |  | > 14 µM |  | > 14 µM | > 16 µM |  |  | 
6 | Nc1nc2c(c(Nc3cccc(Br)c3)n1)-c1ccccc1C2 |  |  |  | > 500 µM | > 200 µM | > 14 µM | > 12 µM | > 200 µM | > 12 µM | > 200 µM | > 12 µM | > 14 µM |  |  | 
7 | CC(C)c1ccccc1Nc1nc(N)nc2c1-c1ccccc1C2 |  | > 200 µM | 2.12 µM | 126 µM | > 200 µM |  |  |  |  |  |  |  |  |  | 
